In PMC3914206:

Experiments:
[1] = target: T1, panel of 442 kinases (Homo sapiens, UniProt P22694); assay type: binding; conditions: Compound Concentration 10 µM
T1 construct: purchased KINOMEscan
Excerpt: (§1) We assessed the selectivity of members of this scaffold using the KINOMEscan methodology across a near comprehensive panel of 442 kinases [[18,27]].

[2] = target: T2, panel of 442 kinases (Homo sapiens, UniProt Q06187); assay type: binding; conditions: Compound Concentration 10 µM
T2 construct: purchased KINOMEscan
T2 sequence (Q06187 whole entry): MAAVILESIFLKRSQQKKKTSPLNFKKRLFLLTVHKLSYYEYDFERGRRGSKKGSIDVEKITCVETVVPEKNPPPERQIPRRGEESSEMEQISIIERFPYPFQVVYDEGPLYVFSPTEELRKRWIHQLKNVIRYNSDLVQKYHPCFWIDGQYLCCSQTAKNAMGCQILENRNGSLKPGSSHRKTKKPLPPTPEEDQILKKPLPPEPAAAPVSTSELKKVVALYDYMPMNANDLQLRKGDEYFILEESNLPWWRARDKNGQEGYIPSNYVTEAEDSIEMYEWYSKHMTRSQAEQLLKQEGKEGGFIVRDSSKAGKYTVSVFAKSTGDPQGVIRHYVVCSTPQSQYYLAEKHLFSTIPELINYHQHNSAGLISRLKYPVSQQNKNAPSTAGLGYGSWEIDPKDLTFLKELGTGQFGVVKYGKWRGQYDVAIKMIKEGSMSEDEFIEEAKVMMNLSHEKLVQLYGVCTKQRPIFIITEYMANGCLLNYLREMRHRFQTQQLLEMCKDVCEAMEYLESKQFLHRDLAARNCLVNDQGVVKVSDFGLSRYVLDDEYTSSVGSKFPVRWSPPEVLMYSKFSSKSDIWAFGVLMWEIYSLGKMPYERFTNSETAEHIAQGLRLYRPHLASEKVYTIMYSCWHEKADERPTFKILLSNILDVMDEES
Excerpt: as §1

Compound | KINOMEscan: PKAC-beta [1] | KINOMEscan: BTK [2]
COc1cc(C(=O)N2CCC(N3CCN(C)CC3)CC2)ccc1Nc1ncc2c(n1)N(C)c1ccccc1C(=O)N2C [15 (LRRK2-IN-1)] | 100 | 100
COc1cc(C(=O)N2CCC(N3CCN(C)CC3)CC2)ccc1Nc1ncc2c(n1)N(C1CCCC1)c1ccccc1C(=O)N2C [Compound 25, 11-cyclopentyl-2-((2-methoxy-4-(4-(4-methylpiperazin-1-yl)piperidine-1-carbonyl)phenyl)amino)-5-methyl-5H-benzo[e]pyrimido[5,4-b][1,4]diazepin-6(11H)-one] | 100 | 98
CCOc1cc(C(=O)N2CCC(N3CCN(C)CC3)CC2)ccc1Nc1ncc2c(n1)N(C1CCCC1)c1ccccc1C(=O)N2C [Compound 26] | 100 | 100
